From ChEMBL document CHEMBL1201862, “PubChem BioAssay data set” (2004)
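Cells were grown in 96-well plates and exposed to each compound for 48 hours at five concentrations; endpoints were interpolated linearly between bracketing concentrations, or set to the highest concentration if not reached. Abbreviation: GI50, concentration required for 50% inhibition of growth.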 Active and inactive are the calls of the source. No stated cut-off is given here; in the data, active = GI50 up to about 1.1 µM and inactive = higher.

Assays:
Assay in all cases: NCI anticancer screen, dose series, 48 h
UACC-257 = system: UACC-257
OVCAR-3 = system: OVCAR-3
CAKI-1 = system: CAKI-1
SN12C = system: SN12C
ACHN = system: ACHN
LXFL 529 = system: LXFL 529
RPMI-8226 = system: RPMI-8226
OVCAR-5 = system: OVCAR-5
RXF 393 = system: RXF 393
A498 = system: A498
IGROV-1 = system: IGROV-1
HOP-62 = system: HOP-62
MCF7 = system: MCF7
UO-31 = system: UO-31
HCT-116 = system: HCT-116
SF-295 = system: SF-295
COLO 205 = system: COLO 205
Hs-578T = system: Hs-578T
MDA-MB-231 = system: MDA-MB-231

Measured: GI50

CC(=O)OC1CC[C@@]2(C)C(CC[C@]3(C)C2CC=C2[C@@H]4CC(C)(C)CCC4(C)CCC23C)[C@@]1(C)C(=O)O (stereo partly drawn)
inactive: UACC-257 19.9 µM | OVCAR-3 15.1 µM | CAKI-1 18.5 µM | SN12C 16.4 µM | ACHN 12.1 µM | LXFL 529 13.3 µM | RPMI-8226 10.8 µM | OVCAR-5 22.7 µM | RXF 393 16.6 µM | A498 19.2 µM | IGROV-1 16.4 µM | HOP-62 19.9 µM | MCF7 14.9 µM | UO-31 16 µM | HCT-116 13.2 µM | SF-295 17.9 µM | COLO 205 19.1 µM | Hs-578T 20.5 µM | MDA-MB-231 20.9 µM

N=C1OC(c2cccc(Cl)c2)C(NNS(=O)(=O)c2ccccc2)=C1O (stereo not drawn)
inactive: UACC-257 33.3 µM | OVCAR-3 23.1 µM | CAKI-1 31.4 µM | SN12C 44.7 µM | ACHN 31.6 µM | LXFL 529 16.8 µM | RPMI-8226 10.9 µM | OVCAR-5 31.9 µM | RXF 393 15.7 µM | A498 > 100 µM | IGROV-1 70.5 µM | HOP-62 > 100 µM | MCF7 22.4 µM | UO-31 26.6 µM | HCT-116 21.3 µM | SF-295 57 µM | COLO 205 13.2 µM | Hs-578T 27.4 µM | MDA-MB-231 18.2 µM
